The values below come from patent publication US20100256133A1, “NOVEL COMPOUNDS HAVING INDAZOLE FRAMEWORKS, METHODS FOR PREPARING THE SAME AND PHARMACEUTICAL COMPOSITION COMPRISING THE SAME” (priority 2007, published 2010).

The structures appear in SMILES notation.

T1 sequence (P49841 whole entry): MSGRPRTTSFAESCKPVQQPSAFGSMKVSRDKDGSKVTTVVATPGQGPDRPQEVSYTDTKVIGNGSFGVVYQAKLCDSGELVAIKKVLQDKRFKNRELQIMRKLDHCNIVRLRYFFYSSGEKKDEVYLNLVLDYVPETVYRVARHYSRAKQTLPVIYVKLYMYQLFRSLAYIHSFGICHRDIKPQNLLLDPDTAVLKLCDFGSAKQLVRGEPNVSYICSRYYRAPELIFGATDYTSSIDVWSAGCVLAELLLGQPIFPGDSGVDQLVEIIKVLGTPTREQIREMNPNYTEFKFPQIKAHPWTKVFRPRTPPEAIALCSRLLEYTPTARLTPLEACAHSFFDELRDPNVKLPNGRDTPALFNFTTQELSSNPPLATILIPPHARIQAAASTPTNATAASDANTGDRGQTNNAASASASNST

The first assay concerns the target T1, GSK3β (Homo sapiens, UniProt P49841).
T1 construct: made in house; host or cells: Sf21 insect cells
The experiment in a line: Assay for inhibitory activity against GSK3β (Kinase-Glo luminescence). It is filed as biochemical. Particulars: 750 nM ATP, 4 μM GSY-2 phosphopeptide. As for the experimental part:
The compounds of the present invention were assayed for inhibitory activity against GSK3β. The GSK-3 is implicated in the incidence of various diseases including diabetes, Alzheimer's disease, CNS disorders and hypertrophic cardiomyopathy.
GSK3β was purified from Sf21 cells using a procedure described in the literature, R. Dajani et. al. (Cell 2001, […], 721-732). GSK3β activity was examined at room temperature in 50 μl of 40 mM Tris-HCl, pH7.4, 10 mM MgCl2, 1 mM DTT, 0.2 mM EDTA, 200 μM NaVO3, 10 mM β-glyceralphosphate, 1 mM EGTA buffer containing 750 nM ATP and 4 μM GSY-2 phosphopeptide (substrate). After incubation at room temperature for […], Kinase-Glo reagent (Promega) was added to reaction mixtures of Preparation Examples 1-1 to 1-12, 1-80 to 1-90, and 1-92. The well plates were incubated at room temperature for […] to stabilize luminescent signals. The luminescent intensity, reflecting the quantity of ATP, was recorded using a counter (Wallac Victor 1420 multilabel counter) and used to determine % inhibition of GSK3β as compared to ATP level in the control to which none of the compounds of the present invention were added.
Take `O=C(Nc1n[nH]c2nc(-c3cnn4ccccc34)c(F)cc12)C1CC1` [Example 1-1]: the IC50 (commonly the point on the concentration scale where inhibition reaches its midpoint) is 10.2 µM.

For `O=C(Nc1n[nH]c2nc(-c3cnn4ccccc34)c(F)cc12)C1CCCC1` [Example 1-2], the IC50 turned out to be 14.9 µM.

`Cc1cccc2c(-c3nc4[nH]nc(NC(=O)c5ccc(N(C)C)cc5)c4cc3F)cnn12` [Example 1-7] gave a 50% inhibitory concentration (IC50) of 13.3 µM. The IC50 values of the last two compounds are within 1.5-fold of each other.

`COc1ccn2ncc(-c3nc4[nH]nc(NC(=O)Cc5ccc(F)cc5)c4cc3F)c2c1` [Example 1-9] gave an IC50 of 20 µM.

`O=C(Cc1ccc(F)cc1)Nc1n[nH]c2nc(-c3cnn4ccccc34)c(F)cc12` [Example 1-10]: the IC50 came to 14.4 µM.

`CC(=O)OCCn1nc(NC(=O)C2CCCC2)c2cc(F)c(-c3cnn4ccccc34)nc21` [Example 1-85] registered an IC50 of 34.9 µM.

The assay is the same for the next values; noted with them: compound at 25 μM; 750 nM ATP, 4 μM GSY-2 phosphopeptide; vs control without compound.
Regarding `O=C(Nc1n[nH]c2nc(-c3cnn4ccccc34)c(F)cc12)C1CC1` [Example 1-1], the inhibition – broadly, the drop in the measured response relative to a control, in per cent – at 25 µM amounted to 80.8%.

As for `O=C(Nc1n[nH]c2nc(-c3cnn4ccccc34)c(F)cc12)C1CCCC1` [Example 1-2], the inhibition at 25 µM was determined as 76.9%.

For the compound `Cc1cccc2c(-c3nc4[nH]nc(NC(=O)C5CC5)c4cc3F)cnn12` [Example 1-3], the inhibition at 25 µM turned out to be 11.6%.

In the case of `Cc1cccc2c(-c3nc4[nH]nc(NC(=O)C5CCCC5)c4cc3F)cnn12` [Example 1-4], the inhibition at 25 µM came to 63.8%.

Take `Cc1cccc2c(-c3nc4[nH]nc(NC(=O)c5cccc(C#N)c5)c4cc3F)cnn12` [Example 1-5]: the inhibition at 25 µM was 35.1%.

With `Cc1cccc2c(-c3nc4[nH]nc(NC(=O)Cc5ccc(F)cc5)c4cc3F)cnn12` [Example 1-6], the inhibition at 25 µM was determined as 48.3%.

`Cc1cccc2c(-c3nc4[nH]nc(NC(=O)c5ccc(N(C)C)cc5)c4cc3F)cnn12` [Example 1-7]: the inhibition at 25 µM was determined as 71.2%.

Take `COc1ccn2ncc(-c3nc4[nH]nc(NC(=O)C5CC5)c4cc3F)c2c1` [Example 1-8]: the inhibition at 25 µM was found to be 37.7%.

In the case of `COc1ccn2ncc(-c3nc4[nH]nc(NC(=O)Cc5ccc(F)cc5)c4cc3F)c2c1` [Example 1-9], the inhibition at 25 µM came to 58.2%.

Regarding `O=C(Cc1ccc(F)cc1)Nc1n[nH]c2nc(-c3cnn4ccccc34)c(F)cc12` [Example 1-10], the inhibition at 25 µM came out at 77.4%.

On to `Nc1n[nH]c2nc(-c3cnn4ccccc34)c(F)cc12` [Example 1-11], for which the inhibition at 25 µM was 30%.

For the compound `COc1ccn2ncc(-c3nc4[nH]nc(N)c4cc3F)c2c1` [Example 1-12], the inhibition at 25 µM came out at 87.7%.

Regarding `CC(=O)OCCn1nc(N)c2cc(F)c(-c3cnn4c(C)cccc34)nc21` [Example 1-80], the inhibition at 25 µM worked out at 19.7%.

On to `CC(=O)OCCn1nc(NC(=O)c2ccc(F)cc2)c2cc(F)c(-c3cnn4c(C)cccc34)nc21` [Example 1-81], for which the inhibition at 25 µM was 81.9%.

Take `CC(=O)OCCn1nc(N)c2cc(F)c(-c3cnn4ccccc34)nc21` [Example 1-82]: the inhibition at 25 µM was 64.5%.

In the case of `COc1ccn2ncc(-c3nc4c(cc3F)c(N)nn4CCOC(C)=O)c2c1` [Example 1-83], the inhibition at 25 µM was 81.2%.

As for `CC(=O)OCCn1nc(NC(=O)C2CC2)c2cc(F)c(-c3cnn4ccccc34)nc21` [Example 1-84], the inhibition at 25 µM turned out to be 24.4%.

For `CC(=O)OCCn1nc(NC(=O)C2CCCC2)c2cc(F)c(-c3cnn4ccccc34)nc21` [Example 1-85], the inhibition at 25 µM was determined as 68.6%.

As for `O=C(Cc1ccc(F)cc1)Nc1nn(CCO)c2nc(-c3cnn4ccccc34)c(F)cc12` [Example 1-86], the inhibition at 25 µM was found to be 47.9%.

Turning to `Nc1nn(CCO)c2nc(-c3cnn4ccccc34)c(F)cc12` [Example 1-87], the inhibition at 25 µM was determined as 26.7%.

As for `CC(=O)OCCn1nc(NC(=O)c2ccccc2)c2cc(F)c(-c3cnn4ccccc34)nc21` [Example 1-88], the inhibition at 25 µM was determined as 23%.

As to `O=C(Nc1nn(CCO)c2nc(-c3cnn4ccccc34)c(F)cc12)c1ccccc1` [Example 1-89], the inhibition at 25 µM came to 1.5%.

Consider `COc1ccn2ncc(-c3nc4c(cc3F)c(N)nn4CCO)c2c1` [Example 1-90], for which the inhibition at 25 µM was found to be 116%.

For `COc1ccn2ncc(-c3nc4c(cc3F)c(NC(=O)c3ccccc3)nn4CCO)c2c1` [Example 1-92], the inhibition at 25 µM was 117%.

Turning to `Cc1cccc2c(-c3nc4c(cc3F)c(NC(=O)c3ccc(F)cc3)nn4C(=O)c3ccc(F)cc3)cnn12` [Example 1-93], the inhibition at 25 µM came to 51.6%.

With `O=C(Nc1nn(C(=O)C2CCCC2)c2nc(-c3cnn4ccccc34)c(F)cc12)C1CCCC1` [Example 1-94], the inhibition at 25 µM was 41.7%.

`CC(=O)OCCn1nc(NC(=O)Cc2ccc(F)cc2)c2cc(F)c(-c3cnn4ccccc34)nc21` [Example 1-95]: the inhibition at 25 µM was 53.2%.

Staying with this assay, now noted: compound at 50 μM; 750 nM ATP, 4 μM GSY-2 phosphopeptide; vs control without compound.
Regarding `O=C(Nc1n[nH]c2nc(-c3cnn4ccccc34)c(F)cc12)C1CC1` [Example 1-1], the inhibition at 50 µM was determined as 96.3%.

For the compound `O=C(Nc1n[nH]c2nc(-c3cnn4ccccc34)c(F)cc12)C1CCCC1` [Example 1-2], the inhibition at 50 µM was 95.3%.

For `Cc1cccc2c(-c3nc4[nH]nc(NC(=O)C5CC5)c4cc3F)cnn12` [Example 1-3], the inhibition at 50 µM is 53.1%.

Consider `Cc1cccc2c(-c3nc4[nH]nc(NC(=O)C5CCCC5)c4cc3F)cnn12` [Example 1-4], for which the inhibition at 50 µM was determined as 82.1%.

On to `Cc1cccc2c(-c3nc4[nH]nc(NC(=O)c5cccc(C#N)c5)c4cc3F)cnn12` [Example 1-5], for which the inhibition at 50 µM amounted to 78%.

For the compound `Cc1cccc2c(-c3nc4[nH]nc(NC(=O)Cc5ccc(F)cc5)c4cc3F)cnn12` [Example 1-6], the inhibition at 50 µM was determined as 70.8%.

Consider `Cc1cccc2c(-c3nc4[nH]nc(NC(=O)c5ccc(N(C)C)cc5)c4cc3F)cnn12` [Example 1-7], for which the inhibition at 50 µM worked out at 92.3%.

As for `COc1ccn2ncc(-c3nc4[nH]nc(NC(=O)C5CC5)c4cc3F)c2c1` [Example 1-8], the inhibition at 50 µM stood at 61.6%.

For `COc1ccn2ncc(-c3nc4[nH]nc(NC(=O)Cc5ccc(F)cc5)c4cc3F)c2c1` [Example 1-9], the inhibition at 50 µM came out at 94.6%.

Consider `O=C(Cc1ccc(F)cc1)Nc1n[nH]c2nc(-c3cnn4ccccc34)c(F)cc12` [Example 1-10], for which the inhibition at 50 µM came to 90.7%.

As for `CC(=O)OCCn1nc(N)c2cc(F)c(-c3cnn4c(C)cccc34)nc21` [Example 1-80], the inhibition at 50 µM is 37.8%.

As to `CC(=O)OCCn1nc(NC(=O)c2ccc(F)cc2)c2cc(F)c(-c3cnn4c(C)cccc34)nc21` [Example 1-81], the inhibition at 50 µM worked out at 97.5%.

On to `CC(=O)OCCn1nc(N)c2cc(F)c(-c3cnn4ccccc34)nc21` [Example 1-82], for which the inhibition at 50 µM was 80.4%.

Regarding `COc1ccn2ncc(-c3nc4c(cc3F)c(N)nn4CCOC(C)=O)c2c1` [Example 1-83], the inhibition at 50 µM was 87.2%.

As to `CC(=O)OCCn1nc(NC(=O)C2CC2)c2cc(F)c(-c3cnn4ccccc34)nc21` [Example 1-84], the inhibition at 50 µM amounted to 49.5%.

On to `CC(=O)OCCn1nc(NC(=O)C2CCCC2)c2cc(F)c(-c3cnn4ccccc34)nc21` [Example 1-85], for which the inhibition at 50 µM stood at 90.1%.

In the case of `O=C(Cc1ccc(F)cc1)Nc1nn(CCO)c2nc(-c3cnn4ccccc34)c(F)cc12` [Example 1-86], the inhibition at 50 µM stood at 86.5%.

Regarding `Cc1cccc2c(-c3nc4c(cc3F)c(NC(=O)c3ccc(F)cc3)nn4C(=O)c3ccc(F)cc3)cnn12` [Example 1-93], the inhibition at 50 µM is 88.6%.

Turning to `O=C(Nc1nn(C(=O)C2CCCC2)c2nc(-c3cnn4ccccc34)c(F)cc12)C1CCCC1` [Example 1-94], the inhibition at 50 µM is 87.2%.

Turning to `CC(=O)OCCn1nc(NC(=O)Cc2ccc(F)cc2)c2cc(F)c(-c3cnn4ccccc34)nc21` [Example 1-95], the inhibition at 50 µM worked out at 78.9%.
